{"source": "ChEMBL document CHEMBL2429758", "about": "“3-aroylmethylene-2,3,6,7-tetrahydro-1H-pyrazino[2,1-a]isoquinolin-4(11bH)-ones as potent Nrf2/ARE inducers in human cancer cells and AOM-DSS treated mice” (J Med Chem, 2013)", "key": {"HCT-116 [1]": {"test_system": "HCT-116", "assay": "Induction of NQO1 expression in human HCT116 cells up to 24 hrs by Western blot analysis", "assay_type": "functional, cell-based"}, "HCT-116 [2]": {"test_system": "HCT-116", "assay": "Induction of HO-1 expression in human HCT116 cells up to 8 hrs by Western blot analysis", "assay_type": "functional, cell-based"}, "[3]": {"molecular_target": "T1, Nuclear factor erythroid 2-related factor 2 (Homo sapiens) (UniProt Q16236)", "T1 sequence (whole entry)": "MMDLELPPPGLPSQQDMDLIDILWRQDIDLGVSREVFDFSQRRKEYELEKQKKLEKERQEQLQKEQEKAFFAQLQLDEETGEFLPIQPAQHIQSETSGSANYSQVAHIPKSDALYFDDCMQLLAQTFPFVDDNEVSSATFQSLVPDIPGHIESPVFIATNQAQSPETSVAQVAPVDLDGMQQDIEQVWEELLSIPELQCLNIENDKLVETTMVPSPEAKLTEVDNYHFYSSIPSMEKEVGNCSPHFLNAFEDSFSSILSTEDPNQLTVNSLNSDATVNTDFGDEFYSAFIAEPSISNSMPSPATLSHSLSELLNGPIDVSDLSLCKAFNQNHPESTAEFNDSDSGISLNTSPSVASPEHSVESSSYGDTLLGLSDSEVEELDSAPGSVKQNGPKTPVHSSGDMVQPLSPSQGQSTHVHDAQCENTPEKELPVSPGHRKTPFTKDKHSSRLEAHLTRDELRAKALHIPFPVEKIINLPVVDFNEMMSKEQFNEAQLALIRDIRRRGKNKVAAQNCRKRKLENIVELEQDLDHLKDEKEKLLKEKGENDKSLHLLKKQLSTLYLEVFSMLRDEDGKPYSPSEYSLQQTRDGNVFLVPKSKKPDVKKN", "assay": "Induction of Nrf2-mediated ARE activity in human HepG2-ARE-C8 cells at 10 uM after 12 hrs by luciferase reporter gene assay relative to control", "assay_type": "cell-based"}, "[4]": {"molecular_target": "T1, Nuclear factor erythroid 2-related factor 2 (Homo sapiens)", "assay": "Induction of Nrf2-mediated ARE activity in human HepG2-ARE-C8 cells at 5 uM after 12 hrs by luciferase reporter gene assay relative to control", "assay_type": "cell-based"}, "[5]": {"molecular_target": "T1, Nuclear factor erythroid 2-related factor 2 (Homo sapiens)", "assay": "Induction of Nrf2-mediated ARE activity in human HepG2-ARE-C8 cells at 1 uM after 12 hrs by luciferase reporter gene assay relative to control", "assay_type": "cell-based"}, "[6]": {"molecular_target": "T1, Nuclear factor erythroid 2-related factor 2 (Homo sapiens)", "assay": "Induction of Nrf2-mediated ARE activity in human HepG2-ARE-C8 cells at 0.1 uM after 12 hrs by luciferase reporter gene assay relative to control", "assay_type": "cell-based"}, "[7]": {"molecular_target": "T1, Nuclear factor erythroid 2-related factor 2 (Homo sapiens)", "assay": "Induction of Nrf2-mediated ARE activity in human HepG2-ARE-C8 cells at 0.01 uM after 12 hrs by luciferase reporter gene assay relative to control", "assay_type": "cell-based"}, "Mus musculus [8]": {"test_system": "Mus musculus", "assay": "Toxicity in azoxymethane dextran sodium sulfate C57BL/6 mouse model assessed as sign of toxicity at 50 mg/kg/day treated with food measured after 130 days", "assay_type": "organism-based", "conditions": "in vivo, 3120 h"}, "Mus musculus [9]": {"test_system": "Mus musculus", "assay": "Toxicity in azoxymethane dextran sodium sulfate C57BL/6 mouse model assessed as change body weight at 50 mg/kg/day treated with food measured after 130 days", "assay_type": "organism-based", "conditions": "in vivo, 3120 h"}, "Mus musculus [10]": {"test_system": "Mus musculus", "assay": "Antiinflammatory activity in azoxymethane dextran sodium sulfate C57BL/6 mouse model assessed as reduction of IL-6 expression at 50 mg/kg/day treated with food measured after 130 days by immunohistochemical analysis", "assay_type": "functional, organism-based"}, "Mus musculus [11]": {"test_system": "Mus musculus", "assay": "Antiinflammatory activity in azoxymethane dextran sodium sulfate C57BL/6 mouse model assessed as reduction of IL-1beta expression at 50 mg/kg/day treated with food measured after 130 days by immunohistochemical analysis", "assay_type": "functional, organism-based"}, "Mus musculus [12]": {"test_system": "Mus musculus", "assay": "Chemopreventive activity in azoxymethane dextran sodium sulfate C57BL/6 mouse model assessed as reduction of developed dysplasia at 50 mg/kg/day treated with food measured after 130 days by hematoxylin and eosin staining", "assay_type": "functional, organism-based"}, "Mus musculus [13]": {"test_system": "Mus musculus", "assay": "Chemopreventive activity in azoxymethane dextran sodium sulfate C57BL/6 mouse model assessed as increase of lymphocyte ratio at 50 mg/kg/day treated with food measured after 130 days (reference value: 87.75 +/- 2.16%)", "assay_type": "functional"}, "Mus musculus [14]": {"test_system": "Mus musculus", "assay": "Chemopreventive activity in azoxymethane dextran sodium sulfate C57BL/6 mouse model assessed as reduction of neutrophils ratio at 50 mg/kg/day treated with food measured after 130 days (reference value: 12.73 +/- 1.65%)", "assay_type": "functional", "design": "scale not given: the % may be the effect or the level left"}, "Mus musculus [15]": {"test_system": "Mus musculus", "assay": "Chemopreventive activity in azoxymethane dextran sodium sulfate C57BL/6 mouse model assessed as increase of WBC level at 50 mg/kg/day treated with food measured after 130 days (reference value: 5.33 +/- 1.34 10^9/L)", "assay_type": "functional"}, "Mus musculus [16]": {"test_system": "Mus musculus", "assay": "Chemopreventive activity in azoxymethane dextran sodium sulfate C57BL/6 mouse model assessed as reduction of length of colon at 50 mg/kg/day treated with food measured after 130 days (reference value: 5.62 +/- 0.69 centimeter)", "assay_type": "functional"}, "Mus musculus [17]": {"test_system": "Mus musculus", "assay": "Chemopreventive activity in azoxymethane dextran sodium sulfate C57BL/6 mouse model assessed as reduction of tumor burden at 50 mg/kg/day treated with food measured after 130 days", "assay_type": "functional, organism-based"}, "Mus musculus [18]": {"test_system": "Mus musculus", "assay": "Chemopreventive activity in azoxymethane dextran sodium sulfate C57BL/6 mouse model assessed as reduction of average size of tumor at 50 mg/kg/day treated with food measured after 130 days", "assay_type": "functional"}, "Mus musculus [19]": {"test_system": "Mus musculus", "assay": "Chemopreventive activity in azoxymethane dextran sodium sulfate C57BL/6 mouse model assessed as reduction of multiplicity of tumor at 50 mg/kg/day treated with food measured after 130 days", "assay_type": "functional, organism-based"}, "Mus musculus [20]": {"test_system": "Mus musculus", "assay": "Chemopreventive activity in azoxymethane dextran sodium sulfate C57BL/6 mouse model assessed as reduction of tumor incidence at 50 mg/kg/day treated with food measured after 130 days", "assay_type": "functional", "design": "scale not given: the % may be the effect or the level left"}, "[21]": {"molecular_target": "T1, Nuclear factor erythroid 2-related factor 2 (Homo sapiens)", "assay": "Induction of Nrf2 nuclear translocation in human HCT116 cells at 10 uM by Western blot analysis", "assay_type": "cell-based", "conditions": "HCT-116"}, "HCT-116 [22]": {"test_system": "HCT-116", "assay": "Induction of NQO1 expression in human HCT116 cells at 10 uM by Western blot analysis", "assay_type": "functional, cell-based", "conditions": "TDE = time-dependent effect"}, "HCT-116 [23]": {"test_system": "HCT-116", "assay": "Induction of HO-1 expression in human HCT116 cells at 10 uM by Western blot analysis", "assay_type": "functional, cell-based", "conditions": "TDE = time-dependent effect"}, "[24]": {"molecular_target": "T1, Nuclear factor erythroid 2-related factor 2 (Homo sapiens)", "assay": "Induction of Nrf2-mediated ARE activity in human HepG2-ARE-C8 cells after 12 hrs by luciferase reporter gene assay", "assay_type": "cell-based"}, "Mus musculus [25]": {"test_system": "Mus musculus", "assay": "Chemopreventive activity in azoxymethane dextran sodium sulfate C57BL/6 mouse model assessed as induction of Nrf2 nuclear translocation at 50 mg/kg/day treated with food measured after 130 days immunofluorescence analysis", "assay_type": "functional, organism-based"}, "[26]": {"molecular_target": "T1, Nuclear factor erythroid 2-related factor 2 (Homo sapiens)", "assay": "Induction of Nrf2-mediated ARE activity in human HepG2-ARE-C8 cells at 80 uM after 12 hrs by luciferase reporter gene assay relative to control", "assay_type": "cell-based"}, "[27]": {"molecular_target": "T1, Nuclear factor erythroid 2-related factor 2 (Homo sapiens)", "assay": "Induction of Nrf2-mediated ARE activity in human HepG2-ARE-C8 cells at 40 uM after 12 hrs by luciferase reporter gene assay relative to control", "assay_type": "cell-based"}, "[28]": {"molecular_target": "T1, Nuclear factor erythroid 2-related factor 2 (Homo sapiens)", "assay": "Induction of Nrf2-mediated ARE activity in human HepG2-ARE-C8 cells at 20 uM after 12 hrs by luciferase reporter gene assay relative to control", "assay_type": "cell-based"}}, "note": "Activity calls are given as the source filed them. The rule behind the calls is not given here."}
{"smiles": "O=C(/C=C1\\NCC2c3ccccc3CCN2C1=O)c1cccc(F)c1", "note": "(stereo unspecified)", "values": [{"measurement": "Activity", "setting": "HCT-116 [1]", "result": "Dose-dependent effect"}, {"measurement": "Activity", "setting": "HCT-116 [2]", "result": "Dose-dependent effect"}, {"measurement": "fold change (FC)", "setting": "[3]", "result": 33}, {"measurement": "fold change (FC)", "setting": "[4]", "result": 29.1}, {"measurement": "fold change (FC)", "setting": "[5]", "result": 9.99}, {"measurement": "fold change (FC)", "setting": "[6]", "result": 3.89}, {"measurement": "fold change (FC)", "setting": "[7]", "result": 2.18}]}
{"smiles": "O=C(/C=C1\\NCC2c3ccccc3CCN2C1=O)c1ccccc1", "note": "(stereo unspecified)", "values": [{"measurement": "Activity", "setting": "Mus musculus [8]", "result": "Non-toxic"}, {"measurement": "Activity", "setting": "Mus musculus [9]", "result": "Non-toxic"}, {"measurement": "inhibition", "setting": "Mus musculus [10]", "result": "Active"}, {"measurement": "inhibition", "setting": "Mus musculus [11]", "result": "Active"}, {"measurement": "Activity", "setting": "Mus musculus [12]", "result": "Active"}, {"measurement": "Activity", "setting": "Mus musculus [13]", "result": 88.15, "unit": "%"}, {"measurement": "Activity", "setting": "Mus musculus [14]", "result": 12.39, "unit": "%"}, {"measurement": "Activity", "setting": "Mus musculus [15]", "result": 5.67, "unit": "×10⁹ /L"}, {"measurement": "Activity", "setting": "Mus musculus [16]", "result": 4.59, "unit": "cm"}, {"measurement": "Activity", "setting": "Mus musculus [17]", "result": "Active"}, {"measurement": "Activity", "setting": "Mus musculus [18]", "result": 2.2, "unit": "mm"}, {"measurement": "Activity", "setting": "Mus musculus [19]", "result": "Active"}, {"measurement": "Activity", "setting": "Mus musculus [20]", "result": 50, "unit": "%"}, {"measurement": "Activity", "setting": "[21]", "result": "Active"}, {"measurement": "Activity", "setting": "HCT-116 [1]", "result": "Dose-dependent effect"}, {"measurement": "Activity", "setting": "HCT-116 [2]", "result": "Dose-dependent effect"}, {"measurement": "Activity", "setting": "HCT-116 [22]", "result": "tde"}, {"measurement": "Activity", "setting": "HCT-116 [23]", "result": "tde"}, {"measurement": "Activity", "setting": "[24]", "result": "Dose-dependent effect"}, {"measurement": "fold change (FC)", "setting": "[3]", "result": 26.9}, {"measurement": "fold change (FC)", "setting": "[4]", "result": 18.9}, {"measurement": "fold change (FC)", "setting": "[5]", "result": 9.51}, {"measurement": "fold change (FC)", "setting": "[6]", "result": 5.44}, {"measurement": "fold change (FC)", "setting": "[7]", "result": 2}, {"measurement": "Activity", "setting": "Mus musculus [25]", "result": "Active"}]}
{"smiles": "CC(C)(C)c1cc(O)ccc1O", "values": [{"measurement": "fold change (FC)", "setting": "[26]", "result": 5.21}, {"measurement": "fold change (FC)", "setting": "[27]", "result": 3.24}, {"measurement": "fold change (FC)", "setting": "[28]", "result": 2.06}, {"measurement": "fold change (FC)", "setting": "[3]", "result": 1.5}, {"measurement": "fold change (FC)", "setting": "[4]", "result": 1.04}]}
{"smiles": "C[S+]([O-])CCCCN=C=S", "note": "(stereo unspecified)", "values": [{"measurement": "fold change (FC)", "setting": "[28]", "result": 18.1}, {"measurement": "fold change (FC)", "setting": "[3]", "result": 8.35}, {"measurement": "fold change (FC)", "setting": "[4]", "result": 5.52}, {"measurement": "fold change (FC)", "setting": "[5]", "result": 2.7}]}
